Data published in patent US20240293558A1, “KRAS INHIBITOR CONJUGATES” (Erasca, Inc., priority 2021, published 2024).

Key:
[1] = target: T1, KRAS (WT) (Homo sapiens, UniProt P01116); test: In-vitro RAS-RAF binding assay (RRB), HTRF/FRET; format: biochemical; conditions: Table 2, average of multiple runs of each compound; read-out: Inhibition of RAS-RAF Binding (in-vitro) KRAS (WT) IC50
T1 construct: Biotinylated KRAS protein amino acids 1-169 (produced at Erasca); made in house
Method in brief: (§1)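 Compounds preincubated with terbium-labelled biotinylated KRAS (aa 1-169, 30 nM) before 60 min SOS1-catalysed exchange to GTPgS. Binding of the d2-labelled cRAF RBD (30 nM) is read as FRET at equilibrium in duplicate. Buffer: 50 mM HEPES pH 7.5, 100 mM NaCl, 1 mM MgCl2, 1 mM DTT.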

[2] = target: T2, KRas G12D fused to HiBiT peptide (Homo sapiens, UniProt P01116, G12D); test: ASPC-1 HiBit assay to determine G12D degradation; format: cell-based; conditions: AsPC-1 HiBiT cells, 24-hour incubation; read-out: ASPC-1 HiBit DC50 (C)
T2 construct: endogenous in cells; host or cells: AsPC-1 HiBiT knock-in single clone (Cas9 RNP + ssODN)
T2 sequence (P01116 1-188 isoform P01116-2 G12D): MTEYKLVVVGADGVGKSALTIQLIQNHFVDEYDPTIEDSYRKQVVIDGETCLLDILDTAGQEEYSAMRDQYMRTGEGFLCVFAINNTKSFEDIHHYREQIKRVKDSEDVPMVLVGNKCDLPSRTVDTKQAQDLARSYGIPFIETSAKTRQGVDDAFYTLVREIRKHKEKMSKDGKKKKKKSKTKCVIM
Description: Compounds presented herein induce degradation of the KRas G12D (KRasG12D) upon treatment of engineered cancer cell line.
The degradation of the KRasG12D in cellular environment was measured using engineered homozygous KRasG12D AsPC-1 cell line in which KRas G12D was fused to luminescent HiBiT peptide at the N-terminal. The small (1.3 kDa) HiBiT peptide complements with high affinity to a larger (18 kDa) subunit evolved from NanoLuc (termed LgBiT). The resulting complex (i.e., reconstituted luciferase enzyme) generates bright luminescence that translates to high sensitivity (1 amol), broad dynamic range (four orders of magnitude), and rapid kinetics for real time quantitation.
To generate HiBit KRasG12D knock-in cell line, sgRNA (SEQ. ID NO: 1) and ssODN (SEQ. ID NO: 2) were designed and synthesized at GenScript.
RNP complex was generated by mixing of 100 pmol of Cas9 protein to PCR tubes containing 300 pmol sgRNA incubating the resultant complex at room temperature for 20 min. […] ssODN was added to RNP complex slowly and RNP-ssODN complex was incubated at room temperature for 10 min. RNP-ssODN complex was mixed with […] of AsPC-1 cells (1×10^6 cells total) and electroporated using Nucleofactor (Program CM-150). Cells were then incubated at ambient temperature for 5 min and transferred to a six-well plate containing 2 ml growth medium.
To select pools with the highest luminescence signal, 10^4 cells of parental AsPC-1 and transfected pools were plated in solid white 384-well tissue culture plates. 24 hours after seeding, HiBiT was detected using the Nano-Glo HiBiT Lytic Detection System (Promega) following manufacturer's instructions. Briefly, […] of Nano-Glo HiBiT Lytic Detection Reagent was added directly to the cells and mixed by inversion before recording luminescence on an Envision (Perkin-Elmer) with 0.5 s integration time.
Single clones were isolated from stable pool by limited dilution method and presence of HiBiT knock-in was verified by TA cloning and subsequent sequencing. Additionally, western blotting analysis was conducted to confirm selection of single clones with high luminescence signal.
For DC50S measurements, AsPC-1 HiBiT single clone cells were grown in RPMI 1640 medium (Invitrogen 22400-089) supplemented with 10% fetal bovine serum. Cells were seeded in 384-well tissue culture plates at a density of 7,000 cells/well and allowed to attach for 24 hours.
Test compounds were distributed directly into assay plate with the adjustment for DMSO concentration using Tecan HP D300e. For most of the experiments, the final concentration of compounds starts from 10 μM, 3-fold dilution dose response and 10 doses. […] DMSO final concentration is 1%. Each concentration of exemplary compound was tested as singleton. The negative control wells were cells with DMSO only, and the positive control wells were cells with […] inhibitor.
Following 24-hour incubation with the compounds plate and Nano-Glo® HiBiT Lytic reagents were equilibrated to room temperature. 20 μL of HiBiT Lytic reagent were added to each well. The assay plate was incubated on digital microplate shaker (350 rpm) for 20 min followed by centrifugation at 500 g for 1 min. Luminescence was recorded using Envision (Perkin-Elmer) using aperture 384-L1 with 0.1 s integration time.
HiBiT signal are used to calculate the % degradation at given compound concentration using the following formula:
% Degradation=(1−(Sample HiBiT signal−Ave Min signal)/(Ave Max signal−Ave Min signal))*100%
For DC50 calculation, the data with the hook effect were removed first and DC50S was reported using a 4-parameter fit of dose response curve using GraphPad in those cases where maximum % degradation was >50% and Minimal % degradation was <50%. The decrease in DC50 reflects that the exemplary compound led to a higher level of degradation of KRasG12D than another exemplary compound at specific timepoint of treatment of cancer cell line. […]

[3] = target: KRAS G12D (Homo sapiens, UniProt P01116, G12D); test: In-vitro RAS-RAF binding assay (RRB), HTRF/FRET; format: biochemical; set-up: Biotinylated KRAS protein amino acids 1-169 (produced at Erasca); made in house; conditions: Table 2, average of multiple runs of each compound; read-out: Inhibition of RAS-RAF Binding (in-vitro) KRAS (G12D) IC50
Chain of KRAS G12D (P01116 1-169 isoform P01116-2 G12D): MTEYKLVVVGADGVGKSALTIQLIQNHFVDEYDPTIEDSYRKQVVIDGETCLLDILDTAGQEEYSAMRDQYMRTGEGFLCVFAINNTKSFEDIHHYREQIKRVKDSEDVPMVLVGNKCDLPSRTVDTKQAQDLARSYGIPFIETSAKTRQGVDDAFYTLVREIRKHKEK
Method in brief: as §1

T1 sequence (P01116 1-169 isoform P01116-2): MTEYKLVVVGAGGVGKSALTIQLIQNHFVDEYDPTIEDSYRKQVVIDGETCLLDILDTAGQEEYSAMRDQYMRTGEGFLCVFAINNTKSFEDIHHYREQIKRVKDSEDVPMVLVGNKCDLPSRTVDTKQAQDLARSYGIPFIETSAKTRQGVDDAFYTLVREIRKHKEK

SMILES | IC50 [1] | DC50 [2] | IC50 [3]
C#Cc1c(F)ccc2cc(O)cc(-c3ncc4c(N5CC6CCC(C5)N6)nc(OC[C@@H]5CCCN5CCCOCCC(=O)N[C@H](C(=O)N5C[C@H](O)C[C@H]5C(=O)N[C@@H](C)c5ccc(-c6c(F)cc(F)cc6F)cc5)C(C)(C)C)nc4c3F)c12 [Example 49, (2S,4R)-1-((2S)-2-(3-(3-((2S)-2-(((4-(3,8-diazabicyclo[3.2.1]octan-3-yl)-7-(8-ethynyl-7-fluoro-3-hydroxynaphthalen-1-yl)-8-fluoropyrido[4,3-d]pyrimidin-2-yl)oxy)methyl)pyrrolidin-1-yl)propoxy)propanamido)-3,3-dimethylbutanoyl)-4-hydroxy-N-((S)-1-(2′,4′,6′-trifluoro-[1,1′-biphenyl]-4-yl)ethyl)pyrrolidine-2-carboxamide] | 24.9 nM | 324 nM | 7.43 nM
C#Cc1c(F)ccc2cc(O)cc(-c3ncc4c(N5CC6CCC(C5)N6)nc(OCCN5CCC(COc6cc([C@H](C(=O)N7C[C@H](O)C[C@H]7C(=O)N[C@@H](C)c7ccc(-c8scnc8C)cc7)C(C)C)on6)CC5)nc4c3F)c12 [Example 60, (2S,4R)-1-((2R)-2-(3-((1-(2-((4-(3,8-diazabicyclo[3.2.1]octan-3-yl)-7-(8-ethynyl-7-fluoro-3-hydroxynaphthalen-1-yl)-8-fluoropyrido[4,3-d]pyrimidin-2-yl)oxy)ethyl)piperidin-4-yl)methoxy)isoxazol-5-yl)-3-methylbutanoyl)-4-hydroxy-N-((S)-1-(4-(4-methylthiazol-5-yl)phenyl)ethyl)pyrrolidine-2-carboxamide] | 188 nM | 108 nM | 9.55 nM
CC(C)[C@H](C(=O)N1C[C@H](O)C[C@H]1C(=O)N[C@@H](C)c1ccc(-c2c(F)cc(F)cc2F)cc1)c1cc(N2CC3(CCN(CCOc4nc(N5CC6CCC(C5)N6)c5cc(Cl)c(-c6ccc(F)c7sc(N)c(C#N)c67)c(F)c5n4)CC3)C2)no1 [Example 67, (2S,4R)-1-((2S)-2-(3-(7-(2-((7-(2-amino-3-cyano-7-fluorobenzo[b]thiophen-4-yl)-4-(3,8-diazabicyclo[3.2.1]octan-3-yl)-6-chloro-8-fluoroquinazolin-2-yl)oxy)ethyl)-2,7-diazaspiro[3.5]nonan-2-yl)isoxazol-5-yl)-3-methylbutanoyl)-4-hydroxy-N-((S)-1-(2′,4′,6′-trifluoro-[1,1′-biphenyl]-4-yl)ethyl)pyrrolidine-2-carboxamide] | 5000 nM | ≥ 10000 nM | 20 nM
CC(C)[C@@H](C(=O)N1C[C@H](O)C[C@H]1C(=O)N[C@@H](C)c1ccc(-c2c(F)cc(F)cc2F)cc1)c1cc(N2CC3(CCN(CCOc4nc(N5CC6CCC(C5)N6)c5cc(Cl)c(-c6ccc(F)c7sc(N)c(C#N)c67)c(F)c5n4)CC3)C2)no1 [Example 68, (2S,4R)-1-((2R)-2-(3-(7-(2-((7-(2-amino-3-cyano-7-fluorobenzo[b]thiophen-4-yl)-4-(3,8-diazabicyclo[3.2.1]octan-3-yl)-6-chloro-8-fluoroquinazolin-2-yl)oxy)ethyl)-2,7-diazaspiro[3.5]nonan-2-yl)isoxazol-5-yl)-3-methylbutanoyl)-4-hydroxy-N-((S)-1-(2′,4′,6′-trifluoro-[1,1′-biphenyl]-4-yl)ethyl)pyrrolidine-2-carboxamide] | > 10000 nM | 1280 nM | 19.3 nM
CC(C)[C@@H](C(=O)N1C[C@H](O)C[C@H]1C(=O)N[C@@H](C)c1ccc(-c2c(F)cc(F)cc2F)cc1)c1cc(OCC2(F)CCN(CCOc3nc(N4CC5CCC(C4)N5)c4cc(Cl)c(-c5ccc(F)c6sc(N)c(C#N)c56)c(F)c4n3)CC2)no1 [Example 69, (2S,4R)-1-((2R)-2-(3-((1-(2-((7-(2-amino-3-cyano-7-fluorobenzo[b]thiophen-4-yl)-4-(3,8-diazabicyclo[3.2.1]octan-3-yl)-6-chloro-8-fluoroquinazolin-2-yl)oxy)ethyl)-4-fluoropiperidin-4-yl)methoxy)isoxazol-5-yl)-3-methylbutanoyl)-4-hydroxy-N-((S)-1-(2′,4′,6′-trifluoro-[1,1′-biphenyl]-4-yl)ethyl)pyrrolidine-2-carboxamide] | > 10000 nM | 525 nM | 35.2 nM
CC(C)[C@@H](C(=O)N1C[C@H](O)C[C@H]1C(=O)N[C@@H](C)c1ccc(-c2c(F)cccc2F)cc1)c1cc(N2CC3(CCN(CCOc4nc(N5CC6CCC(C5)N6)c5cc(Cl)c(-c6ccc(F)c7sc(N)c(C#N)c67)c(F)c5n4)CC3)C2)no1 [Example 70, (2S,4R)-1-((2R)-2-(3-(7-(2-((7-(2-amino-3-cyano-7-fluorobenzo[b]thiophen-4-yl)-4-(3,8-diazabicyclo[3.2.1]octan-3-yl)-6-chloro-8-fluoroquinazolin-2-yl)oxy)ethyl)-2,7-diazaspiro [3.5]nonan-2-yl)isoxazol-5-yl)-3-methylbutanoyl)-N-((S)-1-(2′,6′-difluoro-[1,1′-biphenyl]-4-yl)ethyl)-4-hydroxypyrrolidine-2-carboxamide] | 5500 nM | 501 nM | 28.6 nM
CC(C)[C@@H](C(=O)N1C[C@H](O)C[C@H]1C(=O)N[C@@H](C)c1ccc(-c2c(F)cc(F)cc2F)cc1)c1cc(OCC2CCN(CCOc3nc(N4CC5CCC(C4)N5)c4cc(Cl)c(-c5ccc(F)c6sc(N)c(C#N)c56)c(F)c4n3)CC2)no1 [Example 71, (2S,4R)-1-((2R)-2-(3-((1-(2-((7-(2-amino-3-cyano-7-fluorobenzo[b]thiophen-4-yl)-4-(3,8-diazabicyclo[3.2.1]octan-3-yl)-6-chloro-8-fluoroquinazolin-2-yl)oxy)ethyl)piperidin-4-yl)methoxy)isoxazol-5-yl)-3-methylbutanoyl)-4-hydroxy-N-((S)-1-(2′,4′,6′-trifluoro-[1,1′-biphenyl]-4-yl)ethyl)pyrrolidine-2-carboxamide] | > 10000 nM | 582 nM | 28 nM
CC(C)[C@@H](C(=O)N1C[C@H](O)C[C@H]1C(=O)N[C@@H](C)c1ccc(-c2c(F)cc(F)cc2F)cc1)c1cc(OCC2(C)CCN(CCOc3nc(N4CC5CCC(C4)N5)c4cc(Cl)c(-c5ccc(F)c6sc(N)c(C#N)c56)c(F)c4n3)CC2)no1 [Example 72, (2S,4R)-1-((2R)-2-(3-((1-(2-((7-(2-amino-3-cyano-7-fluorobenzo[b]thiophen-4-yl)-4-(3,8-diazabicyclo[3.2.1]octan-3-yl)-6-chloro-8-fluoroquinazolin-2-yl)oxy)ethyl)-4-methylpiperidin-4-yl)methoxy)isoxazol-5-yl)-3-methylbutanoyl)-4-hydroxy-N-((S)-1-(2′,4′,6′-trifluoro-[1,1′-biphenyl]-4-yl)ethyl)pyrrolidine-2-carboxamide] | 6730 nM | 528 nM | 29.4 nM
